From patent US8420653B2, “Pyrimidine compounds and their uses” (Orchid Chemicals & Pharmaceuticals Limited, priority 2008, dated 2013)
pIC50: −log10 of the molar value. Like-named read-outs stand apart in the source and are kept apart here.

Legend:
[1] = tested on: TNF-α; test: In vitro measurement of TNF-α in human PBMC; format: cell-based; details: for inhibition at 1 µM: Conc. (1 μM); for inhibition at 10 µM: Conc. (10 μM)
Method: In Vitro Measurement of TNF-α in Human Peripheral Blood Mononuclear Cells
This assay determines the effect of test compounds on the production of TNF a in human Peripheral Blood Mononuclear Cells (PBMC). Compounds were tested for their ability to inhibit the activity of TNF α in human PBMC. PBMC were isolated from blood (of healthy volunteers) using BD Vacutainer CPT™ (Cell preparation tube, BD Bio Science) and suspended in RPMI medium (Physiol. Res. 52, 593-598, 2003). The test compounds were pre-incubated with PBMC (0.5 million/incubation well) for 15 minutes at 37° C. and then stimulated with Lipopolysaccharide (Escherichia coli: B4; 1 μg/ml) for 18 hours at 37° C. in 5% CO2. The levels of TNF-α in the cell culture medium were estimated using enzyme-linked immunosorbent assay performed in a 96 well format as per the procedure of the manufacturer (Cayman Chemical, Ann Arbor, USA).

[2] = tested on: NCI-H460; test: Anti-cancer screen (MTT), NCI-H460; format: cell-based; details: Homo sapiens
Method: (§1) Experimental drugs are screened for anti-cancer activity in three cell lines for their GI50, TGI and LC50 values (using 5 concentrations for each compound). The cell lines are maintained in DMEM containing 10% fetal bovine serum. 96 well microtiter plates are inoculated with cells in […] for 24 hours at 37° C., 5% CO2, 95% air and 100% relative humidity. 5000 HCT116 cells/well, 5000 NCIH460 cells/well, 10000 U251 cells/well and 5000 MDAMB231 cells/well are plated. A separate plate with these cell lines is also inoculated to determine cell viability before the addition of the compounds (T0).
(§2) Following 24-hour incubation, experimental drugs are added to the 96 well plates. Each plate contains one of the above cell lines and the following in triplicate: 5 different concentrations (0.01, 0.1, 1, 10 and 100 μM) of 4 different compounds, appropriate dilutions of a cytotoxic standard and control (untreated) wells. Compounds are dissolved in dimethylsulfoxide (DMSO) to make 20 mM stock solutions, on the day of drug addition and frozen at −20° C. Serial dilutions of these 20 mM stock solutions are made in complete growth medium such that 100 μL of these drug solutions in medium, of final concentrations equaling 0.01, 0.1, 1, 10 and 100 μM can be added to the cells in triplicate. Standard drugs whose anti-cancer activity has been well documented and which are regularly used are doxorubicin and SAHA.
(§3) Cells are incubated with compounds for 48 hours followed by the addition of 10 μL 3-(4,5-Dimethyl-2-thiazolyl)-2,5-diphenyl-2H-tetrazolium (MTT) solution per well and a subsequent incubation at 37° C., 5% CO2, 95% air and 100% relative humidity, protected from light. After 4 hours, well contents are aspirated carefully followed by addition of 150 μL DMSO per well. Plates are agitated to ensure solution of the formazan crystals in DMSO and absorbance read at 570 nm.
(§4) Percent growth is calculated for each compound's concentration relative to the control and zero measurement wells (T0; viability right before compound addition). If a test well's O.D. value is greater than the T0 measurement for that cell line % Growth=(test−zero)/(control−zero)×100
(§5) If a test well's O.D. value is lower than the T0 measurement for that cell line, then: % Growth=(test−zero)/zero×100
(§6) Plotting % growth versus experimental drug concentration, GI50 is the concentration required to decrease % growth by 50%; TGI is the concentration required to decrease % growth by 100% and LC50 is the concentration required to decrease % growth by 150%.

[3] = tested on: HCT-116; test: Anti-cancer screen (MTT), HCT-116; format: cell-based; details: Homo sapiens
Method: as §1, §2, §3, §4, §5, §6

[4] = tested on: TNF- α; test: TNF-α IC50 (Table XVa, assay not given); format: cell-based; details: Table XVa summary
[5] = tested on: Oxazolone induced dermatitis; test: Psoriasis model, oxazolone induced dermatitis; format: in vivo, mice; details: Table XVb summary, dermatitis model not specified
Method: Inhibitory Activity in Psoriasis Model Oxazolone induced dermatitis in mice was performed as described in the literature. Female Balb/c were selected in the age of 6-7 weeks for the study and 20-25 g. Mice were sensitized with oxazolone (15%) from Day 1 to day 6 by applying it on the shaved abdomen. Elicitation was done with oxazolone (2%) on the ear on day 7. Test compounds were applied topically on the ear 15 minutes and 6 hours post oxazolone application on day 7. 24 hours after oxazolone application, ear thickness is measured and ear were excised under anesthesia and weighed.

[6] = tested on: TPA induced dermatitis; test: Psoriasis model, TPA induced dermatitis; format: in vivo; details: mice, topical on the ears
Method: Inhibitory Activity in Psoriasis Model TPA induced dermatitis in mice was performed using the protocol described in Eur J Pharmacol 507, 253-259, 2005. Balb/c mice were acclimatized to laboratory conditions 5-7 days prior to the start of the experiment. They were randomly distributed to various groups based on body weight. The baseline ear thickness of the animal's both ears using thickness gauge was measured. For each animal 20 μl of that contains 2.5 μg of TPA was applied with help of micropipettor with disposable tips. Test compound was applied topically to both inner and outer surface of the both the ears i.e. left and right ear with acetone as control after 30 minutes 6 hours and 24 hours after application of TPA (20 μl). Ear thickness was measured after 6 and 24 hours in animals, while for ear weight ears were excised under anesthesia and weighed.

[7] = tested on: DSS Induced colitis; test: IBD-DSS model (DSS induced colitis); format: in vivo, mice; details: Table XVb summary
Method: Inhibitory Activity in IBD-DSS Model
DSS Induced colitis test was performed as described by Axelsson et al., 1998. Male Balb/c mice were selected in the age of 7-8 weeks for the study. Colitis in mice was induced by providing DSS (2%) in the drinking water from day 1 to 6. Mice were dosed from Day 1 to 6 with test compound suspended in vehicle containing 0.25% carboxymethyl cellulose and 0.5% Tween 80. The control animals received vehicle alone. Body weight and disease activity index was recorded daily during the experiment. After 6 days of treatment, animals were sacrificed; colon weight and colon length was recorded.

[8] = 48 hours, MTT, read-out: GI50 (μM) NCI-H460
[9] = Table XVb summary, for NCI, read-out: Cancer cell lines DU, HCT, NCI (Mean GI50, μm), NCI
[10] = 48 hours, MTT, read-out: GI50 (μM) HCT-116
[11] = Table XVb summary, for HCT, read-out: Cancer cell lines DU, HCT, NCI (Mean GI50, μm), HCT

Structure (SMILES)	inhibition at 1 µM [1]	inhibition at 10 µM [1]	GI50 [2, 8]	GI50 [2, 9]	GI50 [3, 10]	GI50 [3, 11]	pIC50 [4]	Psoriasis Ear thickness [5]	Psoriasis-acute TPA induced dermatitis % inhibition Ear Wt [6]	Psoriasis-acute TPA induced dermatitis % inhibition Ear thickness [6]	IBD DAI [7]
CCOC(=O)C1CCN(c2nc(C(F)(F)F)nc(-c3ccc(F)cc3)c2-c2cccc(S(N)(=O)=O)c2)CC1 [Example 59, Ethyl-1-[5-(3-aminosulfonylphenyl)-6-(4-fluorophenyl)-2-(trifluoromethyl)pyrimidin-4-yl]piperidine-4-carboxylate]	87%	92%	10.5 µM	10.5 µM	> 100 µM	> 100 µM	7.19	–	–	–	–
NS(=O)(=O)c1cccc(-c2c(-c3ccc(F)cc3)nc(C(F)(F)F)nc2-n2ccnc2)c1 [Example 80, 3-[4-(4-Fluorophenyl)-6-(1H-imidazol-1-yl)-2-(trifluoromethyl)pyrimidin-5-yl]benzenesulfonamide]	50%	78%	> 100 µM	> 100 µM	> 100 µM	> 100 µM	7.11	19	18.9%	19.2%	35
